In brackets after ≈: the same amount, converted by molar mass.
What was measured:
Type in all cases: functional
[1] = test system: Enterococcus faecalis; test: Antibacterial activity against gram positive vancomycin-susceptible Enterococcus faecalis ATCC 29212
[2] = test system: Staphylococcus aureus; test: Antibacterial activity against gram positive methicillin-susceptible Staphylococcus aureus Smith OC 4172 by broth microdilution assay
[3] = test system: Staphylococcus aureus; test: Antibacterial activity against gram positive methicillin-resistant Staphylococcus aureus OC 2878
[4] = test system: Staphylococcus aureus; test: Antibacterial activity against gram positive Staphylococcus aureus Smith OC 4172 in presence of 50% mouse serum
[5] = test system: Enterococcus faecium; test: Antibacterial activity against gram positive vancomycin-resistant Enterococcus faecium OC 3312

Row | Structure (SMILES) | MIC [1] | MIC [2] | MIC [3] | MIC [4] | MIC [5]
1 | Cc1cccc(OC[C@H]2CN(c3ccc(-n4cc5cccnc5c4)c(F)c3)C(=O)O2)n1 | > 64 µg/mL | > 128 µg/mL | > 64 µg/mL | > 128 µg/mL | > 128 µg/mL
2 | CC(=O)NC[C@H]1CN(c2ccc(N3CCOCC3)c(F)c2)C(=O)O1 [LINEZOLID] |  |  | 1 µg/mL (≈ 2.96 µM) |  | 2 µg/mL (≈ 5.93 µM)
3 | O=C1O[C@@H](COc2ccon2)CN1c1ccc(N2Cc3cccnc3C2)c(F)c1 | > 32 µg/mL | > 32 µg/mL | 8 µg/mL (≈ 20.2 µM) | > 64 µg/mL | 16 µg/mL (≈ 40.4 µM)
4 | O=C(CO)NC[C@H]1CN(c2ccc(N3Cc4cccnc4C3)c(F)c2)C(=O)O1 | 32 µg/mL (≈ 82.8 µM) | 32 µg/mL (≈ 82.8 µM) | 16 µg/mL (≈ 41.4 µM) | 32 µg/mL | 16 µg/mL (≈ 41.4 µM)
5 | CS(=O)(=O)NC[C@H]1CN(c2ccc(N3Cc4cccnc4C3)c(F)c2)C(=O)O1 | 8 µg/mL (≈ 19.7 µM) | 4 µg/mL (≈ 9.84 µM) | 2 µg/mL (≈ 4.92 µM) | 16 µg/mL | 4 µg/mL (≈ 9.84 µM)
6 | O=C1O[C@@H](C/N=C/NN[N+](=O)[O-])CN1c1ccc(-n2cc3cccnc3c2)c(F)c1 | 32 µg/mL (≈ 77.4 µM) | 64 µg/mL (≈ 155 µM) | > 128 µg/mL | 128 µg/mL | 32 µg/mL (≈ 77.4 µM)
7 | O=C1O[C@@H](C/N=C/NN[N+](=O)[O-])CN1c1ccc(N2Cc3cccnc3C2)c(F)c1 | 16 µg/mL (≈ 38.5 µM) | 8 µg/mL (≈ 19.3 µM) | 8 µg/mL (≈ 19.3 µM) | 16 µg/mL | 8 µg/mL (≈ 19.3 µM)
8 | CC(=O)NC[C@H]1CN(c2ccc(-n3cc4cccnc4c3)c(F)c2)C(=O)O1 | 1 µg/mL (≈ 2.71 µM) | 1 µg/mL (≈ 2.71 µM) | 0.5 µg/mL (≈ 1.36 µM) | 2 µg/mL | 1 µg/mL (≈ 2.71 µM)
9 | CS(=O)(=O)NC[C@H]1CN(c2ccc(-n3cc4cccnc4c3)c(F)c2)C(=O)O1 | > 64 µg/mL | > 64 µg/mL | > 64 µg/mL | > 64 µg/mL | > 64 µg/mL
10 | COC(=O)NC[C@H]1CN(c2ccc(N3Cc4cccnc4C3)c(F)c2)C(=O)O1 | 4 µg/mL (≈ 10.4 µM) | 4 µg/mL (≈ 10.4 µM) | 2 µg/mL (≈ 5.18 µM) | 16 µg/mL | 2 µg/mL (≈ 5.18 µM)
11 | O=C1O[C@@H](COc2cnsn2)CN1c1ccc(N2Cc3cccnc3C2)c(F)c1 | 8 µg/mL (≈ 19.4 µM) | 2 µg/mL (≈ 4.84 µM) | 1 µg/mL (≈ 2.42 µM) | 8 µg/mL | 2 µg/mL (≈ 4.84 µM)
12 | O=C1O[C@@H](Cn2ccccc2=O)CN1c1ccc(-n2cc3cccnc3c2)c(F)c1 | > 128 µg/mL | > 128 µg/mL | > 128 µg/mL | > 128 µg/mL | > 128 µg/mL
13 | CCC(=O)NC[C@H]1CN(c2ccc(-n3cc4cccnc4c3)c(F)c2)C(=O)O1 | 16 µg/mL (≈ 41.8 µM) | 32 µg/mL (≈ 83.7 µM) | 16 µg/mL (≈ 41.8 µM) | 32 µg/mL | 16 µg/mL (≈ 41.8 µM)
14 | CS/C(=N/C#N)NC[C@H]1CN(c2ccc(-n3cc4cccnc4c3)c(F)c2)C(=O)O1 | 8 µg/mL (≈ 18.8 µM) | 8 µg/mL (≈ 18.8 µM) | 8 µg/mL (≈ 18.8 µM) | 64 µg/mL | 8 µg/mL (≈ 18.8 µM)
15 | O=C1O[C@@H](Cn2ccccc2=O)CN1c1ccc(N2Cc3cccnc3C2)c(F)c1 | > 32 µg/mL | > 32 µg/mL | 16 µg/mL (≈ 39.4 µM) | 64 µg/mL | > 32 µg/mL
16 | O=C1O[C@@H](COc2ccon2)CN1c1ccc(-n2cc3cccnc3c2)c(F)c1 | 16 µg/mL (≈ 40.6 µM) | 8 µg/mL (≈ 20.3 µM) | 4 µg/mL (≈ 10.1 µM) | 64 µg/mL | 8 µg/mL (≈ 20.3 µM)
17 | COC(=O)NC[C@H]1CN(c2ccc(-n3cc4cccnc4c3)c(F)c2)C(=O)O1 | 16 µg/mL (≈ 41.6 µM) | 16 µg/mL (≈ 41.6 µM) | 16 µg/mL (≈ 41.6 µM) | 32 µg/mL | 16 µg/mL (≈ 41.6 µM)

Row | Structure (SMILES) | MIC [1] | MIC [2] | MIC [3] | MIC [4] | MIC [5]
18 | N#Cc1ccc(OC[C@H]2CN(c3ccc(-n4cc5cccnc5c4)c(F)c3)C(=O)O2)nc1 | > 32 µg/mL | > 128 µg/mL | > 64 µg/mL | > 128 µg/mL | > 64 µg/mL
19 | CCOC(=O)NC[C@H]1CN(c2ccc(N3Cc4cccnc4C3)c(F)c2)C(=O)O1 | 8 µg/mL (≈ 20 µM) | 8 µg/mL (≈ 20 µM) | 4 µg/mL (≈ 9.99 µM) | 64 µg/mL | 8 µg/mL (≈ 20 µM)
20 | O=C1O[C@@H](COc2cnccn2)CN1c1ccc(-n2cc3cccnc3c2)c(F)c1 | 64 µg/mL (≈ 158 µM) | > 32 µg/mL | 8 µg/mL (≈ 19.7 µM) | > 32 µg/mL | 64 µg/mL (≈ 158 µM)
21 | O=C1O[C@@H](COc2ccccn2)CN1c1ccc(N2Cc3cccnc3C2)c(F)c1 | > 64 µg/mL | > 128 µg/mL | 32 µg/mL (≈ 78.7 µM) | > 128 µg/mL | > 64 µg/mL
22 | CC(=O)OCC(=O)NC[C@H]1CN(c2ccc(N3Cc4cccnc4C3)c(F)c2)C(=O)O1 | 16 µg/mL (≈ 37.3 µM) | 32 µg/mL (≈ 74.7 µM) | 128 µg/mL (≈ 299 µM) | 32 µg/mL | 16 µg/mL (≈ 37.3 µM)
23 | O=C(NC[C@H]1CN(c2ccc(-n3cc4cccnc4c3)c(F)c2)C(=O)O1)C1CC1 | 16 µg/mL (≈ 40.6 µM) | 8 µg/mL (≈ 20.3 µM) | 8 µg/mL (≈ 20.3 µM) | 16 µg/mL | 8 µg/mL (≈ 20.3 µM)
24 | O=C(NC[C@H]1CN(c2ccc(N3Cc4cccnc4C3)c(F)c2)C(=O)O1)C1CC1 | 2 µg/mL (≈ 5.05 µM) | 2 µg/mL (≈ 5.05 µM) | 2 µg/mL (≈ 5.05 µM) | 4 µg/mL | 2 µg/mL (≈ 5.05 µM)
25 | CS/C(=N\C#N)NC[C@H]1CN(c2ccc(N3Cc4cccnc4C3)c(F)c2)C(=O)O1 | 4 µg/mL (≈ 9.38 µM) | 2 µg/mL (≈ 4.69 µM) | 2 µg/mL (≈ 4.69 µM) | 8 µg/mL | 2 µg/mL (≈ 4.69 µM)
26 | Cc1cccc(OC[C@H]2CN(c3ccc(N4Cc5cccnc5C4)c(F)c3)C(=O)O2)n1 | > 32 µg/mL | > 128 µg/mL | > 128 µg/mL | > 128 µg/mL | > 64 µg/mL
27 | C/C(=N\C#N)NC[C@H]1CN(c2ccc(N3Cc4cccnc4C3)c(F)c2)C(=O)O1 | 4 µg/mL (≈ 10.1 µM) | 2 µg/mL (≈ 5.07 µM) | 2 µg/mL (≈ 5.07 µM) | 8 µg/mL | 4 µg/mL (≈ 10.1 µM)
28 | O=C1O[C@@H](COc2cnsn2)CN1c1ccc(-n2cc3cccnc3c2)c(F)c1 | 4 µg/mL (≈ 9.72 µM) | 8 µg/mL (≈ 19.4 µM) | 2 µg/mL (≈ 4.86 µM) | 16 µg/mL | 4 µg/mL (≈ 9.72 µM)
29 | CCC(=O)NC[C@H]1CN(c2ccc(N3Cc4cccnc4C3)c(F)c2)C(=O)O1 | 2 µg/mL (≈ 5.2 µM) | 2 µg/mL (≈ 5.2 µM) | 1 µg/mL (≈ 2.6 µM) | 4 µg/mL | 2 µg/mL (≈ 5.2 µM)
30 | N#Cc1ccc(OC[C@H]2CN(c3ccc(N4Cc5cccnc5C4)c(F)c3)C(=O)O2)nc1 | > 16 µg/mL | > 64 µg/mL | > 64 µg/mL | > 64 µg/mL | > 64 µg/mL
31 | O=C(NC[C@H]1CN(c2ccc(N3Cc4cccnc4C3)c(F)c2)C(=O)O1)C1CCC1 | 8 µg/mL (≈ 19.5 µM) | 8 µg/mL (≈ 19.5 µM) | 4 µg/mL (≈ 9.75 µM) | 32 µg/mL | 8 µg/mL (≈ 19.5 µM)
32 | O=C1O[C@@H](COc2cnccn2)CN1c1ccc(N2Cc3cccnc3C2)c(F)c1 | > 32 µg/mL | > 32 µg/mL | > 32 µg/mL | > 32 µg/mL | > 32 µg/mL
33 | CC(=O)NC[C@H]1CN(c2ccc(N3Cc4cccnc4C3)c(F)c2)C(=O)O1 | 0.5 µg/mL (≈ 1.35 µM) | 0.5 µg/mL (≈ 1.35 µM) | 0.25 µg/mL (≈ 0.675 µM) | 1 µg/mL | 0.5 µg/mL (≈ 1.35 µM)

From ChEMBL document CHEMBL1146886, “Antibacterial activity of pyrrolopyridine-substituted oxazolidinones: synthesis and in vitro SAR of various C-5 acetamide replacements” (2006)
